Key:
[1] = system: lung function; experiment: Example 1: percent predicted HGB corrected DLco change from baseline; assay type: in vivo, human; settings: mean (SD)
Text: Change From Baseline in Percent Predicted Hemoglobin (HGB) Corrected Diffusing Capacity of Lung for Carbon Monoxide (DLco) at Each Specified Time Points. DLco is a measurement of the ability of the lungs to transfer gases from the air to the blood. Change from baseline in diffusing capacity of the lung for carbon monoxide (percent predicted hemoglobin level corrected) was reported for this measure. Baseline value was defined as valid and last non-missing value obtained within 28 days prior to participant receiving first study medication. EOT visit was performed within 3 days after the participant's last dose of study drug. […] Analysis was performed on mITT population. Here, ‘number analyzed’=participants with available data for each specified category. Here, ‘O’ in the number analyzed field signifies that none of the participants were available for the analysis at the specified time points.

[2] = target: T1, OATPIB1 (Homo sapiens, UniProt Q9Y6L6); experiment: transporter inhibition in vitro; assay type: in vitro ADME; settings: at clinically relevant concentrations
T1 sequence (Q9Y6L6 1-691): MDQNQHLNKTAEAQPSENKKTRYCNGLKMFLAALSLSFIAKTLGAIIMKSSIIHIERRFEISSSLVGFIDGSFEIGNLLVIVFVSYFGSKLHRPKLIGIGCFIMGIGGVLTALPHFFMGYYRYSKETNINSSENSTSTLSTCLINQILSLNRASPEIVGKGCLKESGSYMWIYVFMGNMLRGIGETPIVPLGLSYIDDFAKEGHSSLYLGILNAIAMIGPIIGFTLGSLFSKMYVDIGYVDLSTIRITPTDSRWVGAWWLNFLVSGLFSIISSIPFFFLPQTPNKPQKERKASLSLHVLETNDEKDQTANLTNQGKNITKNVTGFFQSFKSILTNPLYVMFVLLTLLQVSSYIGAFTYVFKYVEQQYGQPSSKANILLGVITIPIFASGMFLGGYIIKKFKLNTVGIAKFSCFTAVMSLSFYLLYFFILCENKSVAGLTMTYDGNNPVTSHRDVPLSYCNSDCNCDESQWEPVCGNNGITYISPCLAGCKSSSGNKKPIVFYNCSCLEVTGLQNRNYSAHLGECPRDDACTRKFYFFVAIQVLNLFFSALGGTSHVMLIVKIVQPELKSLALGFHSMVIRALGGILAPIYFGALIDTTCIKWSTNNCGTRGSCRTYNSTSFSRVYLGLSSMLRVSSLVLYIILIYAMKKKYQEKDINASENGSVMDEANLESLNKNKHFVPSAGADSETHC

## CC(C)NC(=O)COc1cccc(-c2nc(Nc3ccc4[nH]ncc4c3)c3ccccc3n2)c1 [Belumosudil, 2-{3-[4-(1H-indazol-5-ylamino)-2-quinazolinyl]phenoxy}-N-(propan-2-yl) acetamide]
[1]; Cohort 2: 200 mg BID, Cycle 16, Day 1
  Change From Baseline in Percent Predicted Hemoglobin (HGB) Corrected Diffusing Capacity of Lung for Carbon Monoxide (DLco): −6.618 (15.443) Percent Predicted HGB Corrected DLco
[1]; Cohort 2: 200 mg BID, Cycle 17, Day 1
  Change From Baseline in Percent Predicted Hemoglobin (HGB) Corrected Diffusing Capacity of Lung for Carbon Monoxide (DLco): 8.458 (6.229) Percent Predicted HGB Corrected DLco
[1]; Cohort 2: 200 mg BID, Cycle 18, Day 1
  Change From Baseline in Percent Predicted Hemoglobin (HGB) Corrected Diffusing Capacity of Lung for Carbon Monoxide (DLco): 15.543 (11.753) Percent Predicted HGB Corrected DLco
[1]; Cohort 2: 200 mg BID, Cycle 19, Day 1
  Change From Baseline in Percent Predicted Hemoglobin (HGB) Corrected Diffusing Capacity of Lung for Carbon Monoxide (DLco): 1.824 (8.539) Percent Predicted HGB Corrected DLco
[1]; Cohort 2: 200 mg BID, Cycle 20, Day 1
  Change From Baseline in Percent Predicted Hemoglobin (HGB) Corrected Diffusing Capacity of Lung for Carbon Monoxide (DLco): −14.692 (—) Percent Predicted HGB Corrected DLco
[1]; Cohort 2: 200 mg BID, Cycle 21, Day 1
  Change From Baseline in Percent Predicted Hemoglobin (HGB) Corrected Diffusing Capacity of Lung for Carbon Monoxide (DLco): −10.661 (—) Percent Predicted HGB Corrected DLco
[1]; Cohort 2: 200 mg BID, Cycle 22, Day 1
  Change From Baseline in Percent Predicted Hemoglobin (HGB) Corrected Diffusing Capacity of Lung for Carbon Monoxide (DLco): 3.347 (3.560) Percent Predicted HGB Corrected DLco
[1]; Cohort 2: 200 mg BID, Cycle 23, Day 1
  Change From Baseline in Percent Predicted Hemoglobin (HGB) Corrected Diffusing Capacity of Lung for Carbon Monoxide (DLco): −15.184 (20.181) Percent Predicted HGB Corrected DLco
[1]; Cohort 2: 200 mg BID, Cycle 24, Day 1
  Change From Baseline in Percent Predicted Hemoglobin (HGB) Corrected Diffusing Capacity of Lung for Carbon Monoxide (DLco): −18.095 (—) Percent Predicted HGB Corrected DLco
[1]; Cohort 2: 200 mg BID, Cycle 25, Day 1
  Change From Baseline in Percent Predicted Hemoglobin (HGB) Corrected Diffusing Capacity of Lung for Carbon Monoxide (DLco): 6.289 (2.469) Percent Predicted HGB Corrected DLco
[1]; Cohort 2: 200 mg BID, Cycle 27, Day 1
  Change From Baseline in Percent Predicted Hemoglobin (HGB) Corrected Diffusing Capacity of Lung for Carbon Monoxide (DLco): −9.914 (15.387) Percent Predicted HGB Corrected DLco
[1]; Cohort 2: 200 mg BID, Cycle 29, Day 1
  Change From Baseline in Percent Predicted Hemoglobin (HGB) Corrected Diffusing Capacity of Lung for Carbon Monoxide (DLco): −18.814 (24.960) Percent Predicted HGB Corrected DLco
[1]; Cohort 2: 200 mg BID, Cycle 31, Day 1
  Change From Baseline in Percent Predicted Hemoglobin (HGB) Corrected Diffusing Capacity of Lung for Carbon Monoxide (DLco): −0.800 (17.528) Percent Predicted HGB Corrected DLco
[1]; Cohort 2: 200 mg BID, Cycle 33, Day 1
  Change From Baseline in Percent Predicted Hemoglobin (HGB) Corrected Diffusing Capacity of Lung for Carbon Monoxide (DLco): −5.962 (10.550) Percent Predicted HGB Corrected DLco
[1]; Cohort 2: 200 mg BID, Cycle 35, Day 1
  Change From Baseline in Percent Predicted Hemoglobin (HGB) Corrected Diffusing Capacity of Lung for Carbon Monoxide (DLco): −0.426 (6.677) Percent Predicted HGB Corrected DLco
[1]; Cohort 2: 200 mg BID, Cycle 37, Day 1
  Change From Baseline in Percent Predicted Hemoglobin (HGB) Corrected Diffusing Capacity of Lung for Carbon Monoxide (DLco): −19.228 (—) Percent Predicted HGB Corrected DLco
[1]; Cohort 2: 200 mg BID, Cycle 39, Day 1
  Change From Baseline in Percent Predicted Hemoglobin (HGB) Corrected Diffusing Capacity of Lung for Carbon Monoxide (DLco): −6.813 (12.810) Percent Predicted HGB Corrected DLco
[1]; Cohort 2: 200 mg BID, Cycle 43, Day 1
  Change From Baseline in Percent Predicted Hemoglobin (HGB) Corrected Diffusing Capacity of Lung for Carbon Monoxide (DLco): 8.775 (—) Percent Predicted HGB Corrected DLco
[1]; Cohort 2: 200 mg BID, EOT
  Change From Baseline in Percent Predicted Hemoglobin (HGB) Corrected Diffusing Capacity of Lung for Carbon Monoxide (DLco): 0.985 (5.919) Percent Predicted HGB Corrected DLco
[1]; Cohort 3: 400 mg QD, Cycle 2, Day 1
  Change From Baseline in Percent Predicted Hemoglobin (HGB) Corrected Diffusing Capacity of Lung for Carbon Monoxide (DLco): −5.243 (9.830) Percent Predicted HGB Corrected DLco
[1]; Cohort 3: 400 mg QD, Cycle 3, Day 1
  Change From Baseline in Percent Predicted Hemoglobin (HGB) Corrected Diffusing Capacity of Lung for Carbon Monoxide (DLco): −3.928 (9.492) Percent Predicted HGB Corrected DLco
[1]; Cohort 3: 400 mg QD, Cycle 4, Day 1
  Change From Baseline in Percent Predicted Hemoglobin (HGB) Corrected Diffusing Capacity of Lung for Carbon Monoxide (DLco): 0.278 (9.683) Percent Predicted HGB Corrected DLco
[1]; Cohort 3: 400 mg QD, Cycle 5, Day 1
  Change From Baseline in Percent Predicted Hemoglobin (HGB) Corrected Diffusing Capacity of Lung for Carbon Monoxide (DLco): −4.111 (9.138) Percent Predicted HGB Corrected DLco
[1]; Cohort 3: 400 mg QD, Cycle 6, Day 1
  Change From Baseline in Percent Predicted Hemoglobin (HGB) Corrected Diffusing Capacity of Lung for Carbon Monoxide (DLco): −3.143 (10.385) Percent Predicted HGB Corrected DLco
[1]; Cohort 3: 400 mg QD, Cycle 7, Day 1
  Change From Baseline in Percent Predicted Hemoglobin (HGB) Corrected Diffusing Capacity of Lung for Carbon Monoxide (DLco): −4.275 (11.464) Percent Predicted HGB Corrected DLco
[1]; Cohort 3: 400 mg QD, Cycle 8, Day 1
  Change From Baseline in Percent Predicted Hemoglobin (HGB) Corrected Diffusing Capacity of Lung for Carbon Monoxide (DLco): −3.787 (11.983) Percent Predicted HGB Corrected DLco
[1]; Cohort 3: 400 mg QD, Cycle 9, Day 1
  Change From Baseline in Percent Predicted Hemoglobin (HGB) Corrected Diffusing Capacity of Lung for Carbon Monoxide (DLco): −2.540 (11.897) Percent Predicted HGB Corrected DLco
[1]; Cohort 3: 400 mg QD, Cycle 10, Day 1
  Change From Baseline in Percent Predicted Hemoglobin (HGB) Corrected Diffusing Capacity of Lung for Carbon Monoxide (DLco): 1.328 (8.887) Percent Predicted HGB Corrected DLco
[1]; Cohort 3: 400 mg QD, Cycle 11, Day 1
  Change From Baseline in Percent Predicted Hemoglobin (HGB) Corrected Diffusing Capacity of Lung for Carbon Monoxide (DLco): −2.720 (10.920) Percent Predicted HGB Corrected DLco
[1]; Cohort 3: 400 mg QD, Cycle 12, Day 1
  Change From Baseline in Percent Predicted Hemoglobin (HGB) Corrected Diffusing Capacity of Lung for Carbon Monoxide (DLco): −1.378 (6.364) Percent Predicted HGB Corrected DLco
[1]; Cohort 3: 400 mg QD, Cycle 13, Day 1
  Change From Baseline in Percent Predicted Hemoglobin (HGB) Corrected Diffusing Capacity of Lung for Carbon Monoxide (DLco): 2.091 (13.290) Percent Predicted HGB Corrected DLco
[1]; Cohort 3: 400 mg QD, Cycle 14, Day 1
  Change From Baseline in Percent Predicted Hemoglobin (HGB) Corrected Diffusing Capacity of Lung for Carbon Monoxide (DLco): 0.309 (11.651) Percent Predicted HGB Corrected DLco
[1]; Cohort 3: 400 mg QD, Cycle 15, Day 1
  Change From Baseline in Percent Predicted Hemoglobin (HGB) Corrected Diffusing Capacity of Lung for Carbon Monoxide (DLco): −5.309 (11.514) Percent Predicted HGB Corrected DLco
[1]; Cohort 3: 400 mg QD, Cycle 16, Day 1
  Change From Baseline in Percent Predicted Hemoglobin (HGB) Corrected Diffusing Capacity of Lung for Carbon Monoxide (DLco): −6.840 (15.053) Percent Predicted HGB Corrected DLco
[1]; Cohort 3: 400 mg QD, Cycle 17, Day 1
  Change From Baseline in Percent Predicted Hemoglobin (HGB) Corrected Diffusing Capacity of Lung for Carbon Monoxide (DLco): −10.865 (13.346) Percent Predicted HGB Corrected DLco
[1]; Cohort 3: 400 mg QD, Cycle 18, Day 1
  Change From Baseline in Percent Predicted Hemoglobin (HGB) Corrected Diffusing Capacity of Lung for Carbon Monoxide (DLco): −3.174 (3.106) Percent Predicted HGB Corrected DLco
[1]; Cohort 3: 400 mg QD, Cycle 19, Day 1
  Change From Baseline in Percent Predicted Hemoglobin (HGB) Corrected Diffusing Capacity of Lung for Carbon Monoxide (DLco): −2.020 (2.436) Percent Predicted HGB Corrected DLco
[1]; Cohort 3: 400 mg QD, Cycle 20, Day 1
  Change From Baseline in Percent Predicted Hemoglobin (HGB) Corrected Diffusing Capacity of Lung for Carbon Monoxide (DLco): −13.517 (5.936) Percent Predicted HGB Corrected DLco
[1]; Cohort 3: 400 mg QD, Cycle 21, Day 1
  Change From Baseline in Percent Predicted Hemoglobin (HGB) Corrected Diffusing Capacity of Lung for Carbon Monoxide (DLco): −12.354 (12.800) Percent Predicted HGB Corrected DLco
[1]; Cohort 3: 400 mg QD, Cycle 22, Day 1
  Change From Baseline in Percent Predicted Hemoglobin (HGB) Corrected Diffusing Capacity of Lung for Carbon Monoxide (DLco): −17.222 (16.947) Percent Predicted HGB Corrected DLco
[1]; Cohort 3: 400 mg QD, Cycle 23, Day 1
  Change From Baseline in Percent Predicted Hemoglobin (HGB) Corrected Diffusing Capacity of Lung for Carbon Monoxide (DLco): −2.219 (10.614) Percent Predicted HGB Corrected DLco
[1]; Cohort 3: 400 mg QD, Cycle 24, Day 1
  Change From Baseline in Percent Predicted Hemoglobin (HGB) Corrected Diffusing Capacity of Lung for Carbon Monoxide (DLco): −11.430 (—) Percent Predicted HGB Corrected DLco
[1]; Cohort 3: 400 mg QD, Cycle 25, Day 1
  Change From Baseline in Percent Predicted Hemoglobin (HGB) Corrected Diffusing Capacity of Lung for Carbon Monoxide (DLco): −13.392 (—) Percent Predicted HGB Corrected DLco
[1]; Cohort 3: 400 mg QD, Cycle 27, Day 1
  Change From Baseline in Percent Predicted Hemoglobin (HGB) Corrected Diffusing Capacity of Lung for Carbon Monoxide (DLco): −11.154 (—) Percent Predicted HGB Corrected DLco
[1]; Cohort 3: 400 mg QD, Cycle 29, Day 1
  Change From Baseline in Percent Predicted Hemoglobin (HGB) Corrected Diffusing Capacity of Lung for Carbon Monoxide (DLco): 8.613 (—) Percent Predicted HGB Corrected DLco
[1]; Cohort 3: 400 mg QD, Cycle 31, Day 1
  Change From Baseline in Percent Predicted Hemoglobin (HGB) Corrected Diffusing Capacity of Lung for Carbon Monoxide (DLco): 10.833 (—) Percent Predicted HGB Corrected DLco
[1]; Cohort 3: 400 mg QD, Cycle 35, Day 1
  Change From Baseline in Percent Predicted Hemoglobin (HGB) Corrected Diffusing Capacity of Lung for Carbon Monoxide (DLco): 5.088 (—) Percent Predicted HGB Corrected DLco
[1]; Cohort 3: 400 mg QD, Cycle 36, Day 1
  Change From Baseline in Percent Predicted Hemoglobin (HGB) Corrected Diffusing Capacity of Lung for Carbon Monoxide (DLco): 10.372 (—) Percent Predicted HGB Corrected DLco
[1]; Cohort 3: 400 mg QD, Cycle 39, Day 1
  Change From Baseline in Percent Predicted Hemoglobin (HGB) Corrected Diffusing Capacity of Lung for Carbon Monoxide (DLco): 5.902 (—) Percent Predicted HGB Corrected DLco
[1]; Cohort 3: 400 mg QD, EOT
  Change From Baseline in Percent Predicted Hemoglobin (HGB) Corrected Diffusing Capacity of Lung for Carbon Monoxide (DLco): −10.371 (14.208) Percent Predicted HGB Corrected DLco
[2]
  inhibition of OATPIB1: inhibits
